Experimental data reported in patent US20220289708A1, “SUBSTITUTED N-PHENYL URACILS, SALTS THEREOF AND THEIR USE AS HERBICIDAL AGENTS” (Bayer Aktiengesellschaft, priority 2019, published 2022).

Assays:
Format in all cases: in vivo
Abutilon theophrasti [1] = experiment: Post-emergence herbicidal action; conditions: application rate 5 g/ha, rated visually after about 3 weeks vs untreated controls
Procedure, shortened: (§1)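 Greenhouse-grown plants in sandy loam were sprayed at the one-leaf stage, 2 to 3 weeks after sowing, with compounds formulated as WP or EC in water plus 0.5% additive at 600 l/ha, at rates of 20 g/ha and less. Activity was scored visually after about 3 weeks against untreated controls (100% = dead).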

Alopecurus myosuroides [2] = experiment: Post-emergence herbicidal action; conditions: rated visually after about 3 weeks vs untreated controls
Procedure, shortened: as §1

Amaranthus retroflexus [3] = experiment: Post-emergence herbicidal action; conditions: application rate 5 g/ha, rated visually after about 3 weeks vs untreated controls
Procedure, shortened: as §1

Avena fatua [4] = experiment: Post-emergence herbicidal action; conditions: application rate 20 g/ha, rated visually after about 3 weeks vs untreated controls
Procedure, shortened: as §1

Digitaria sanguinalis [5] = experiment: Post-emergence herbicidal action; conditions: rated visually after about 3 weeks vs untreated controls
Procedure, shortened: as §1

Echinochloa crus-galli [6] = experiment: Post-emergence herbicidal action; conditions: rated visually after about 3 weeks vs untreated controls
Procedure, shortened: as §1

Hordeum murinum = experiment: Post-emergence herbicidal action; conditions: application rate 20 g/ha
Procedure, shortened: as §1

Lolium rigidum [7] = experiment: Post-emergence herbicidal action; conditions: application rate 20 g/ha, rated visually after about 3 weeks vs untreated controls
Procedure, shortened: as §1

Matricaria inodora [8] = experiment: Post-emergence herbicidal action; conditions: rated visually after about 3 weeks vs untreated controls
Procedure, shortened: as §1

Pharbitis purpurea [9] = experiment: Post-emergence herbicidal action; conditions: application rate 5 g/ha, rated visually after about 3 weeks vs untreated controls
Procedure, shortened: as §1

Polygonum convolvulus [10] = experiment: Post-emergence herbicidal action; conditions: application rate 5 g/ha
Procedure, shortened: as §1

Setaria viridis [11] = experiment: Post-emergence herbicidal action; conditions: rated visually after about 3 weeks vs untreated controls
Procedure, shortened: as §1

Stellaria media = experiment: Post-emergence herbicidal action; conditions: application rate 5 g/ha, rated visually after about 3 weeks vs untreated controls
Procedure, shortened: as §1

Veronica persica [12] = experiment: Post-emergence herbicidal action
Procedure, shortened: as §1

Viola tricolor [13] = experiment: Post-emergence herbicidal action; conditions: application rate 5 g/ha
Procedure, shortened: as §1

Triticum aestivum = experiment: Post-emergence crop plant compatibility
Procedure, shortened: (§2)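 Greenhouse crop plants in sandy loam sprayed at one-leaf stage (2-3 weeks after sowing) with WP or EC formulations plus 0.5% additive, 600 l/ha water, at 5 g/ha or 20 g/ha. Damage scored visually after about 3 weeks as % versus untreated controls (100% = plants dead).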

Oryza sativa = experiment: Post-emergence crop plant compatibility; conditions: application rate 5 g/ha
Procedure, shortened: as §2

Abutilon theophrasti [14] = experiment: Pre-emergence herbicidal action; conditions: application rate 20 g/ha
Excerpt: (§3) B. Pre-Emergence Herbicidal Action and Crop Plant Compatibility Seeds of monocotyledonous and dicotyledonous weed plants and crop plants were placed in plastic or organic planting pots and covered with soil. The compounds of the invention, formulated in the form of wettable powders (WP) or as emulsion concentrates (EC), were then applied to the surface of the covering soil as aqueous suspension or emulsion with addition of 0.5% additive at a water application rate equivalent to 600 l/ha (converted). After the treatment, the pots were placed in a greenhouse and kept under good growth conditions for the test plants. After about 3 weeks, the effect of the preparations was scored visually in comparison with untreated controls as percentages. For example, 100% activity=the plants have died, 0% activity=like control plants. Tables B1 to B13 below show the effects of selected compounds of the general formula (I) according to Tables I.1 to I.36 on various harmful plants and at an application rate corresponding to 80 g/ha or less, which were obtained by the experimental procedure mentioned above.

Alopecurus myosuroides [15] = experiment: Pre-emergence herbicidal action; conditions: application rate 80 g/ha
Excerpt: as §3

Amaranthus retroflexus [16] = experiment: Pre-emergence herbicidal action; conditions: application rate 20 g/ha
Excerpt: as §3

Avena fatua [17] = experiment: Pre-emergence herbicidal action; conditions: application rate 80 g/ha
Excerpt: as §3

Digitaria sanguinalis [18] = experiment: Pre-emergence herbicidal action; conditions: application rate 20 g/ha
Excerpt: as §3

Echinochloa crus-galli [19] = experiment: Pre-emergence herbicidal action
Excerpt: as §3

Lolium rigidum [20] = experiment: Pre-emergence herbicidal action; conditions: application rate 80 g/ha
Excerpt: as §3

Matricaria inodora [21] = experiment: Pre-emergence herbicidal action; conditions: application rate 20 g/ha
Excerpt: as §3

Pharbitis purpurea [22] = experiment: Pre-emergence herbicidal action; conditions: application rate 20 g/ha
Excerpt: as §3

Polygonum convolvulus [23] = experiment: Pre-emergence herbicidal action; conditions: application rate 20 g/ha
Excerpt: as §3

Setaria viridis [24] = experiment: Pre-emergence herbicidal action; conditions: application rate 20 g/ha
Excerpt: as §3

Veronica persica [25] = experiment: Pre-emergence herbicidal action; conditions: application rate 20 g/ha
Excerpt: as §3

Viola tricolor [26] = experiment: Pre-emergence herbicidal action; conditions: application rate 20 g/ha
Excerpt: as §3

Zea mays = experiment: Pre-emergence crop plant compatibility; conditions: application rate 20 g/ha
Excerpt: B. Pre-Emergence Herbicidal Action and Crop Plant Compatibility
as §3, with “Seeds” for “B. Pre-Emergence Herbicidal Action and Crop Plant Compatibility Seeds”, “plants.” for “plants. Tables B1 to B13 below show the effects of selected compounds of the general formula (I) according to Tables I.1 to I.36 on various harmful plants and at an application rate corresponding to 80 g/ha or less, which were obtained by the experimental procedure mentioned above.”
Tables B14 to B16 below show the crop plant compatibilities of selected compounds of the general formula (I) according to Tables I.1 to I.36 at an application rate corresponding to 20 g/ha, which were obtained in experiments according to the experimental procedure mentioned above. Here, the observed effects on selected crop plants are stated in comparison to the untreated controls (values in %).

Row | Structure (SMILES) | Abutilon theophrasti (efficacy in %) (Abutilon theophrasti [1]) [%] | Amaranthus retroflexus (efficacy in %) (Amaranthus retroflexus [3]) [%] | Matricaria inodora (efficacy in %) (Matricaria inodora [8]; application rate 5 g/ha) [%] | Pharbitis purpurea (efficacy in %) (Pharbitis purpurea [9]) [%] | Veronica persica (efficacy in %) (Veronica persica [12]; application rate 5 g/ha) [%] | Echinochloa crus-galli (efficacy in %) (Echinochloa crus-galli [6]; application rate 5 g/ha) [%] | Oryza sativa (efficacy in %) (Oryza sativa) [%] | Abutilon theophrasti (efficacy in %) (Abutilon theophrasti [14]) [%] | Alopecurus myosuroides (efficacy in %) (Alopecurus myosuroides [15]) [%] | Amaranthus retroflexus (efficacy in %) (Amaranthus retroflexus [16]) [%] | Avena fatua (efficacy in %) (Avena fatua [17]) [%] | Digitaria sanguinalis (efficacy in %) (Digitaria sanguinalis [18]) [%] | Lolium rigidum (efficacy in %) (Lolium rigidum [20]) [%] | Matricaria inodora (efficacy in %) (Matricaria inodora [21]) [%] | Pharbitis purpurea (efficacy in %) (Pharbitis purpurea [22]) [%] | Polygonum convolvulus (efficacy in %) (Polygonum convolvulus [23]) [%] | Setaria viridis (efficacy in %) (Setaria viridis [24]) [%] | Veronica persica (efficacy in %) (Veronica persica [25]) [%] | Viola tricolor (efficacy in %) (Viola tricolor [26]) [%] | Zea mays (efficacy in %) (Zea mays) [%] | also measured
1 | Cn1c(C(F)(F)F)cc(=O)n(-c2cc(Oc3cccnc3OCC(=O)OC3COC3)c(Cl)cc2F)c1=O [I.15-115] | 100 | 100 | 100 | 100 | 100 | – | – | – | – | – | – | – | – | – | – | – | – | – | – | – | Alopecurus myosuroides (efficacy in %) (Alopecurus myosuroides [2]; application rate 5 g/ha): 80%; Avena fatua (efficacy in %) (Avena fatua [4]): 90%; Digitaria sanguinalis (efficacy in %) (Digitaria sanguinalis [5]; application rate 20 g/ha): 100%; Echinochloa crus-galli (efficacy in %) (Echinochloa crus-galli [6]; application rate 20 g/ha): 100%; Hordeum murinum (efficacy in %) (Hordeum murinum): 100%; Lolium rigidum (efficacy in %) (Lolium rigidum [7]): 90%; Polygonum convolvulus (efficacy in %) (Polygonum convolvulus [10]): 100%; Setaria viridis (efficacy in %) (Setaria viridis [11]; application rate 20 g/ha): 100%; Stellaria media (efficacy in %) (Stellaria media): 100%; Viola tricolor (efficacy in %) (Viola tricolor [13]): 100%; Triticum aestivum (efficacy in %) (Triticum aestivum; application rate 5 g/ha): 20%
2 | Cn1c(C(F)(F)F)cc(=O)n(-c2cc(Oc3cccnc3OCC(=O)OCc3ccc(C(F)(F)F)nc3)c(Cl)cc2F)c1=O [I.15-350, [6-(Trifluoromethyl)pyridin-3-yl]methyl [(3-{2-chloro-4-fluoro-5-[3-methyl-2,6-dioxo-4-(trifluoromethyl)-3,6-dihydropyrimidin-1(2H)-yl]phenoxy}pyridin-2-yl)oxy]acetate] | 100 | 100 | 80 | 100 | 100 | 100 | 20 | 100 | 100 | 100 | 100 | 100 | 100 | 100 | 100 | 100 | 100 | 100 | 100 | 0 | Triticum aestivum (efficacy in %) (Triticum aestivum; application rate 5 g/ha): 20%; Echinochloa crus-galli (efficacy in %) (Echinochloa crus-galli [19]; application rate 80 g/ha): 100%
3 | Cn1c(C(F)(F)F)cc(=O)n(-c2cc(Oc3cccnc3OCC(=O)OCc3ccccn3)c(Cl)cc2F)c1=O [I.15-286] | 100 | 100 | 90 | 100 | 100 | 100 | 20 | 100 | 100 | 100 | 100 | 100 | 100 | 100 | 100 | 100 | 100 | 100 | 100 | 20 | Digitaria sanguinalis (efficacy in %) (Digitaria sanguinalis [5]; application rate 5 g/ha): 100%; Echinochloa crus-galli (efficacy in %) (Echinochloa crus-galli [19]; application rate 20 g/ha): 80%
4 | Cn1c(C(F)(F)F)cc(=O)n(-c2cc(Oc3cccnc3OCC(=O)OCc3cccnn3)c(Cl)cc2F)c1=O [I.15-301] | 100 | 100 | – | 100 | 100 | 100 | 20 | 100 | 100 | 100 | 100 | 100 | 100 | 100 | 100 | 100 | 100 | 80 | 100 | 0 | Echinochloa crus-galli (efficacy in %) (Echinochloa crus-galli [19]; application rate 20 g/ha): 80%
5 | Cn1c(C(F)(F)F)cc(=O)n(-c2cc(Sc3cccnc3SCC(=O)OCC3CCOC3)c(Cl)cc2F)c1=O (stereo not drawn) [I.10-72] | 100 | 100 | – | 100 | – | 100 | 20 | – | – | – | – | – | – | – | – | – | – | – | – | – | Alopecurus myosuroides (efficacy in %) (Alopecurus myosuroides [2]; application rate 20 g/ha): 80%; Digitaria sanguinalis (efficacy in %) (Digitaria sanguinalis [5]; application rate 5 g/ha): 80%; Hordeum murinum (efficacy in %) (Hordeum murinum): 80%; Lolium rigidum (efficacy in %) (Lolium rigidum [7]): 80%; Matricaria inodora (efficacy in %) (Matricaria inodora [8]; application rate 20 g/ha): 100%; Polygonum convolvulus (efficacy in %) (Polygonum convolvulus [10]): 100%; Setaria viridis (efficacy in %) (Setaria viridis [11]; application rate 5 g/ha): 90%; Stellaria media (efficacy in %) (Stellaria media): 90%; Veronica persica (efficacy in %) (Veronica persica [12]; application rate 20 g/ha): 80%; Viola tricolor (efficacy in %) (Viola tricolor [13]): 100%; Triticum aestivum (efficacy in %) (Triticum aestivum; application rate 20 g/ha): 20%
